Here are results for three compounds from patent US11834698B2, “Process for determining enzyme activity in a cell by activity-based reporter gene technology (ABRGT)” (INDIAN INSTITUTE OF SCIENCE EDUCATION AND RESEARCH, priority 2018, dated 2023).

Peptide text beside a SMILES is read from it. * marks the point of attachment. Cbz = O=C(OCc1ccccc1)*; CH2F = FC*

In this assay the target is T1, caspase-3 GFPspark (Homo sapiens, UniProt P42574).
T1 sequence (P42574 29-175 limits assumed): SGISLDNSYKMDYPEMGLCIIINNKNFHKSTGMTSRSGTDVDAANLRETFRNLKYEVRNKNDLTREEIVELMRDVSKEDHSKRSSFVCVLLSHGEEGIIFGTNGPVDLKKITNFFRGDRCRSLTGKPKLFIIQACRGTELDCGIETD
T1 sequence (P42574 176-277 limits assumed): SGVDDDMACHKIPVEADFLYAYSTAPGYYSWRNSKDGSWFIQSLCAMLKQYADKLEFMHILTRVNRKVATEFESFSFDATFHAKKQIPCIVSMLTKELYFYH
As to the kind of experiment: AbRGT FRET imaging / acceptor photobleaching, caspase-3 GFPspark in MCF-7 cells. It counts as cell-based. Details: host or cells: MCF-7, HeLa, HEK-293. The note with it: for effect of inhibitor on FRET signal: STS 4 h. On the procedure:
FIG. 2 depicts (a) a schematic representation of AbRGT in determining the specific activation of caspase-3 GFPspark tagged enzyme by FRET effect utilizing Rh-VAD-FMK (probe 1). (b) The fluorescence signal was collected in GFP, FRET and Rhodamine (Rh) channels. MCF-7 cells transfected with caspase-3 GFPspark treated with (i) 1 μM STS for 4 h or (ii) 1 μg/ml TRAIL for 5 h and then labelled with probe 1. (iii) Un-transfected MCF-7 cells were treated with 1 μM STS for 4 h and then labelled with the probe 1. MCF-7 cells transfected with enhanced green fluorescent protein (EGFP) plasmid treated (iv) with 1 μM STS or (v) without STS for 4 h and then labelled with probe 1, scale bar, […]. (c) FRET validation between GFPspark and rhodamine fluorophore using the acceptor photobleaching method. Images for GFP and rhodamine fluorescence signals were collected in GFP and FRET channels pre- and post-bleaching of rhodamine signals. (d) Quantification of change in GFP fluorescence intensity after rhodamine photo-bleaching in both unbleached control region and rhodamine bleached region, region of interest (ROI), area under the white square. Error bar represents the s.e.m for n=15 cells (*P<0.00001). Scale bar, 10 μm. a.u., arbitrary units.
FIGS. 6A and 6B depict time dependent activation of caspase-3 GFPspark in MCF-7 cells upon STS (1 μM) induction. MCF-7 cells transfected with 2 μg of caspase-3 GFPspark plasmid and treated with 1 μM of STS for 2, 6, and 8 h. Cells were then labelled with the probe 1 for an additional 2 h. […] FRET validation between GFPspark and rhodamine fluorophore using the acceptor photobleaching method for the MCF-7 cells with STS induction for 2, 6 and 8 h. I=intensity (a.u.), arbitrary units. The calculated FRET efficiency for 2, 6 and 8 h are 38, 43, and 36% respectively.
FIGS. 7A and 7B depict applying AbRGT for specific detection of active caspase-3 GFPspark using the Rh-DEVD-FMK (probe 2). Caspase-3 GFPspark (2 μg) overexpressing MCF-7 cells were treated with 1 μM of STS for 4 h and labelled with the probe 2 (1 μM). […] The rise in GFPspark intensity after rhodamine photobleaching in the background is insignificant as compared to the ROI, i.e., 68 a.u., with a calculated FRET efficiency of 35%.
FIG. 12 depicts confocal images of MCF-7 cells in GFP, FRET and Rh channel. Caspase-3 GFPspark transfected MCF-7 cells were treated with STS for 4 h and labelled (a) with or (b) without probe 1. Cells were pre-treated with (c) Z-VAD-FMK (50 μM) and (d) Q-VD-OPh (50 μM) pan-caspase inhibitors 3 h before the probe labelling.
Plasmids and transient transfection: GFPspark tagged plasmids; caspase-3 GFPspark tag (Cat: HG10050-ACG), caspase-7 GFPspark tag (HG10049-ACG), caspase-8 GFPspark (HG10078-ACG), caspase-9 GFPspark (HG11151-ACG) and cathepsin B GFPspark (HG10483-ACG) were procured from Sino Biological. For transfection, cells were seeded in a 6-well plate at a density of 0.4 million cells/well. At 60-70% confluency, cells were transiently transfected for 24 h at 37° C. with 1 μg of the GFPspark tagged plasmid DNA construct mixed with 5 μL of Lipofectamine 2000 (Invitrogen) according to the manufacturer's instructions. 24 h post-transfection, cells were visualized under the GFP filter for GFPspark expression under fluorescence microscope at 10× magnification.
Labelling of active caspases in apoptotic cells with FABP: After 24 h of transfection, cells were treated with STS (1 μM) drug or TRAIL (1 μg/ml) for apoptotic induction and incubated for 2, 4, 6 and 8 h at 37° C. in a humidified atmosphere of 5% CO2/95% air. Cells were gently scraped off from the surface at the end of apoptotic induction and centrifuged at 3000 rpm for 5 min. The cell pellet was resuspended in 300 μL of fresh DMEM containing 1 μM of probe for probe 2 and incubated for additional 2 h at 37° C. in a humidified atmosphere of 5% CO2. Cells were again centrifuged at 3000 rpm for 5 mins, and the supernatant was decanted. […]

Where [1] appears, read: MCF-7, inhibitor 50 μM pre-treatment before probe 1 labelling.

On to `CC(C)[C@H](NC(=O)c1ccc2ccccc2n1)C(=O)N[C@@H](CC(=O)O)C(=O)COc1c(F)cccc1F` [Q-VD-OPh], for which, under setting [1], the “signal in Rh channel in presence of inhibitor” value is “distinct punctate labelling was detected” and the “effect of inhibitor on FRET signal” value is on record as “abolished”.

Regarding `COC(=O)C[C@H](NC(=O)[C@H](C)NC(=O)[C@@H](NC(=O)OCc1ccccc1)C(C)C)C(=O)CF` [Z-VAD-FMK] (Cbz-Val-Ala-Asp(OMe)-CH2F), the “effect of inhibitor on FRET signal” value under setting [1] is recorded as “completely abolished”.

As for “Rhodamine-VAD-fluoromethyl ketone [probe 1]”, the “calculated FRET efficiency” value reads like this: (MCF-7, STS 1 μM 2 h) 38%; (MCF-7, STS 1 μM 4 h, probe 1 μM 2 h, acceptor photobleaching) 35±1%; (MCF-7, STS 1 μM 6 h) 43%; (MCF-7, STS 1 μM 8 h) 36%. Also, the “rise in GFP intensity after rhodamine photobleaching in ROI” value (MCF-7, STS 1 μM 4 h, probe 1 μM) is 58±3 a.u.
